# What was measured:
# [1] = Pharmacokinetics in female NSG mice; type: in vivo; details: single IP 50 mg/kg
# Method: Drug concentrations in plasma and tissue samples were measured by a qualified UPLC-MS/MS method with a Waters Acquity I-Class UPLC interfaced with a Waters TQ-S mass spectrometer. The lower limit of quantitation (LLOQ) was 1 ng/mL for plasma and 1 ng/g tissue for liver, kidney, lung and brain. PK parameters were calculated using the non-compartmental method of the pharmacokinetic software package Phoenix WinNonlin, version 6.2 (Certara, St. Louis, MO). The area under the plasma concentration versus time curve (AUC) was calculated using the linear trapezoidal method. […] The apparent terminal half-life (t1/2) was calculated as 0.693/λ.
# In vitro ADME properties of targeted degraders 3 and 7 were studied with the standard Tier I assays, i.e. kinetic solubility assay, parallel artificial membrane permeability assay (PAMPA) and rat liver microsomal (RLM) stability assay (Sun et al., Bioorg Med Chem 2019, 27(14):3110-4; Sun et al., Bioorg Med Chem 2017, 25(3):1266-76; Shah et al., Drug Metab Dispos 2016, 44(10):1653-61). The pharmacokinetics (PK) of targeted degraders 3 and 7 were determined in female NSG mice (The Jackson Laboratory; body weight range from 17-25 grams) after a single intraperitoneal injection of 50 mg/kg. […]
# LZK = biological target: T1, LZK (Homo sapiens, UniProt O43283); assay: LZK degradation (doxycycline-induced LZK expression, immunoblot) in CAL33 cells; type: cell-based; set-up: V5 (named only in the vector); expressed in transfected cells; host or cells: CAL33 HNSCC cells, lentiviral T-REx system, induced with doxycycline
# T1 sequence (O43283 1-966): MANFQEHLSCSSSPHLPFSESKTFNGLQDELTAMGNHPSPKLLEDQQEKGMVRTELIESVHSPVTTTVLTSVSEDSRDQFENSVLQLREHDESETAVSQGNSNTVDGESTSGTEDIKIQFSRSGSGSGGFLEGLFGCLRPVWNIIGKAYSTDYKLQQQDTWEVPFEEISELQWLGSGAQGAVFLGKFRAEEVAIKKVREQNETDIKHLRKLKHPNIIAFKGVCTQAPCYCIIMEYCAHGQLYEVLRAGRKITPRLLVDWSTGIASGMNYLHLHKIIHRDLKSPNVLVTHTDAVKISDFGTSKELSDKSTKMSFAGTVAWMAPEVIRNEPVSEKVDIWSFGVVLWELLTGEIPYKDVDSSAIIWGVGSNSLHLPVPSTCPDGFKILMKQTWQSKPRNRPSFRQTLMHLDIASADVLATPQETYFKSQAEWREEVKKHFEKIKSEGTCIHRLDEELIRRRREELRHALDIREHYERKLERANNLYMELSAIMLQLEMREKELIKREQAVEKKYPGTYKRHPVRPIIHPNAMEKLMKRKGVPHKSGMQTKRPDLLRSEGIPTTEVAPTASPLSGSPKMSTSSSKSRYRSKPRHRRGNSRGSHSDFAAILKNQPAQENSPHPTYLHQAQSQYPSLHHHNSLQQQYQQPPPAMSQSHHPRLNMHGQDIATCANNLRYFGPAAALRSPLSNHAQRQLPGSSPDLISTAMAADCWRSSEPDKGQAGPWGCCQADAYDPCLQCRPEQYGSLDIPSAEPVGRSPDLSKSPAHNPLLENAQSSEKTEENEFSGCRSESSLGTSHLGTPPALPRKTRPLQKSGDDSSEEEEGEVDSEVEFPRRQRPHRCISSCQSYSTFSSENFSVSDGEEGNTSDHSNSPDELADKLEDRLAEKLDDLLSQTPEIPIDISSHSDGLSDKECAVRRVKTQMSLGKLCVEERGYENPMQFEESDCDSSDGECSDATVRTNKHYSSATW
# Description: The ViraPower HiPerform T-REx Gateway Expression System (Invitrogen) was used to generate cells with tetracycline-inducible expression of LZK. In brief, wild-type (WT) or drug-resistant mutant (Q240S) LZK (cloned into pLenti6.3/TO/V5-DEST vector) and pLenti3.3/TR (for tetracycline repressor expression) were transfected into 293FT cells using Lipofectamine 2000 to generate lentiviral stock. Cell lines were generated by antibiotic selection (blasticidin [Gibco] and geneticin [Gibco]). Doxycycline (Sigma-Aldrich) was used at 1 μg/mL to induce LZK expression.
# Generally, cells were plated in six-well or 35-mm plates for 24 hours, after which doxycycline was added or treatment with specific inhibitor was administered using […] for 48 hours. After appropriate treatment time, cells were washed with ice-cold phosphate-buffered saline without Ca and Mg (Quality Biological) and then lysed on ice with RIPA buffer (50 mM NaCl, 1.0% o IGEPAL® CA-630, 0.5% o sodium deoxycholate, 0.10% SDS, 50 mM Tris, pH 8.0) (Sigma-Aldrich) supplemented with protease inhibitor tablet (Sigma-Aldrich) and phosphatase inhibitor cocktails 2 and 3 (Sigma-Aldrich) followed by centrifugation at 15,000 rpm for 10 minutes at 4° C. Protein concentrations were determined from the cell lysate by using 660 nm Protein Assay Reagent (Pierce). Cell extracts were denatured, subjected to SDS-PAGE, transferred to PVDF membranes (Bio-Rad) and blocked for 2 hours using 5 bovine serum albumin (BSA) in phosphate-buffered saline and 0.10 Tween® 20 (PBS-T). The membranes were incubated with the specific antibodies overnight in […] at 4° C. followed by a 1 hour incubation with the appropriate horseradish peroxidase-conjugated secondary antibodies and signal was detected by chemiluminescence (Thermo Fisher).
structure (smiles),measurement,setting,value
Cc1ncsc1-c1ccc([C@H](C)NC(=O)[C@@H]2C[C@@H](O)CN2C(=O)[C@@H](NC(=O)CCCCCCC(=O)N2CCC(c3cc(Nc4cc(C#N)ccn4)nc(N4CCC(F)(F)C4)c3)CC2)C(C)(C)C)cc1 [Compound 3],tissue distribution and drug characteristics,[1],variable tissue distribution and overall promising drug characteristics
same,LZK degradation,LZK; 1 μM for 48 hours,degraded LZK
same,rescue of degrader-mediated loss of LZK expression by MG132,"LZK; two-hour pretreatment MG132 (3 μM), degrader 1 μM 24 hours",rescued by adding a proteasome inhibitor (MG132)
same,rescue of degrader-mediated loss of LZK expression by MLN4924,"LZK; two-hour pretreatment MLN4924 (500 nM), degrader 1 μM 24 hours",rescued with MLN4924
